From patent US12581252B2, “Substituted pyrrolo[3,4-b]pyridines as PI3K-α inhibitors” (Relay Therapeutics, Inc., priority 2020, dated 2026) come the findings set out here.

One may read the IC50 as the point on the concentration scale where inhibition reaches its midpoint. High values mean a need for much substance, low ones inhibition by little substance.

A value given as a limit tells only on which side of the number the result lay.

Sequence of H1047R PIK3CA enzyme (P42336 whole entry H1047R): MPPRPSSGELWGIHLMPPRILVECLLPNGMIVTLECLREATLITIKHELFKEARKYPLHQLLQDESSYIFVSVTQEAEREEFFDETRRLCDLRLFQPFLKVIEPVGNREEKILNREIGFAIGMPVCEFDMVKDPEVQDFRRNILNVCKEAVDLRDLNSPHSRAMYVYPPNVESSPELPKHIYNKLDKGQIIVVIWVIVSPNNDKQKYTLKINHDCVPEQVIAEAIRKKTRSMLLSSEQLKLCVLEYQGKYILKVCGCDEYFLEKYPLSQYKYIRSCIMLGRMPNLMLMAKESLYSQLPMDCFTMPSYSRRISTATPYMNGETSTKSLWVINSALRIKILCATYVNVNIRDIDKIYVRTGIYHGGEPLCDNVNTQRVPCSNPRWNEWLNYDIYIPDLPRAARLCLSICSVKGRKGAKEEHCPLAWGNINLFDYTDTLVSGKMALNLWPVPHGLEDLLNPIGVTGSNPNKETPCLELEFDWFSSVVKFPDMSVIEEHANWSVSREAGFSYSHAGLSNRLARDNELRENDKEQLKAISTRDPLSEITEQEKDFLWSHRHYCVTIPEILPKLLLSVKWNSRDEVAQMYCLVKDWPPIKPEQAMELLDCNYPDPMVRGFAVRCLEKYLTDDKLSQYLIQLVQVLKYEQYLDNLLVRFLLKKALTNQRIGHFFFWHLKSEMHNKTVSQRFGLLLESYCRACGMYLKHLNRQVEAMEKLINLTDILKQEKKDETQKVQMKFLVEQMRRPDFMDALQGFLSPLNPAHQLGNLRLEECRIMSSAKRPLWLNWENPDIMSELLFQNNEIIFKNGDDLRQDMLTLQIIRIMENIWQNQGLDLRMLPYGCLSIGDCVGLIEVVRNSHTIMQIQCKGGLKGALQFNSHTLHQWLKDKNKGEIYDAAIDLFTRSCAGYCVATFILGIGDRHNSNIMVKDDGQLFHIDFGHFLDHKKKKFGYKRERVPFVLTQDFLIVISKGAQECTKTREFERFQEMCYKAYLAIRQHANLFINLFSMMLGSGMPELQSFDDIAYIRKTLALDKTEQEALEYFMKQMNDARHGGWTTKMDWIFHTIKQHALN
Sequence of H1047R PIK3CA enzyme (P27986 whole entry partner): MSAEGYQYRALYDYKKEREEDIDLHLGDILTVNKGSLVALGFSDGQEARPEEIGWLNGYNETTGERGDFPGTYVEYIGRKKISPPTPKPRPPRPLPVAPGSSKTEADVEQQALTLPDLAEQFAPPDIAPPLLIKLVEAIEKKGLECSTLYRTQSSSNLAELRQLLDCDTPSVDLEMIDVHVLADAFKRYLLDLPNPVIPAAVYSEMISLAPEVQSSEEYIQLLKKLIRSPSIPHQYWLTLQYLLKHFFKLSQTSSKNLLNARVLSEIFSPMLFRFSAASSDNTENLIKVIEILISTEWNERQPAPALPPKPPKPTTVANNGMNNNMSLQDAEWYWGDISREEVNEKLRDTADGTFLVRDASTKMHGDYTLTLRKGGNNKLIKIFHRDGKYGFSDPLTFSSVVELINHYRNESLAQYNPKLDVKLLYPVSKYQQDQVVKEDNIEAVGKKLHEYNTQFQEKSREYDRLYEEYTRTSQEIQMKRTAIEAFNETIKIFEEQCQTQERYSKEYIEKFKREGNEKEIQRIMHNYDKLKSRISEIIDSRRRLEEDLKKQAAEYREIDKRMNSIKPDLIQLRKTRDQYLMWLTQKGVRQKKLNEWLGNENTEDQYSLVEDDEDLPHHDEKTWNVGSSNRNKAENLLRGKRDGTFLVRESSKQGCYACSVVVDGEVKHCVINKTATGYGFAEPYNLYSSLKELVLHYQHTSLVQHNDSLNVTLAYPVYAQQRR

This assay concerns the target H1047R PIK3CA enzyme (Homo sapiens, UniProt P42336, H1047R). Briefly: ADP-Glo Biochemical PIK3CA Kinase Assay.
`O=C1N[C@@H](c2cc(F)ccc2Cl)c2c(NC(=O)N3C[C@@](O)(C(F)(F)F)c4cc(F)ccc43)cc(-n3ncccc3=O)cc21` (single isomer, unassigned) [Compound I-2534] gave an IC50 of 0.5 to 1 µM. The same measure for `O=C1N[C@H](c2cc(F)ccc2Cl)c2c(NC(=O)N3C[C@](O)(C(F)(F)F)c4cc(F)ccc43)cc(-n3ncccc3=O)cc21` (single isomer, unassigned) [Compound I-2535]: 1 to 10 µM; for `N#CCc1cc(NC(=O)N2C[C@@H](O)c3cc(F)ccc32)c2c(c1)C(=O)N[C@@H]2c1cc(F)ccc1Cl` (single isomer, unassigned) [Compound I-2538]: at most 0.1 µM; for `N#CCc1cc(NC(=O)N2C[C@H](O)c3cc(F)ccc32)c2c(c1)C(=O)N[C@H]2c1cc(F)ccc1Cl` (single isomer, unassigned) [Compound I-2539]: 1 to 10 µM.

For `COCc1cc(NC(=O)N2C[C@](O)(C(F)(F)F)c3cc(F)ccc32)c2c(c1)C(=O)N[C@@H]2c1cc(F)ccc1Cl` (single isomer, unassigned) [Compound I-2542], the IC50 is 1 to 10 µM.

The molecule `COCc1cc(NC(=O)N2C[C@@](O)(C(F)(F)F)c3cc(F)ccc32)c2c(c1)C(=O)N[C@H]2c1cc(F)ccc1Cl` (single isomer, unassigned) [Compound I-2543] returned an IC50 of 1 to 10 µM. The same measure for `O=C1N[C@H](c2cc(F)ccc2Cl)c2c(NC(=O)N3C[C@](O)(C(F)(F)F)c4cc(F)ccc43)cc(-n3ccnn3)cc21` (single isomer, unassigned) [Compound I-2548]: 1 to 10 µM; for `O=C1N[C@@H](c2cc(F)ccc2Cl)c2c(NC(=O)N3C[C@@](O)(C(F)(F)F)c4cc(F)ccc43)cc(-n3ccnn3)cc21` (single isomer, unassigned) [Compound I-2549]: 0.1 to 0.5 µM. The same measure for `O=C1N[C@@H](c2cc(F)ccc2Cl)c2c(NC(=O)N3C[C@](O)(C(F)(F)F)c4cc(F)ccc43)cc(-n3ccnn3)cc21` (single isomer, unassigned) [Compound I-2550]: 1 to 10 µM; for `N#CC1(COc2cc(NC(=O)N3C[C@@H](O)c4cc(F)ccc43)c3c(c2)C(=O)N[C@H]3c2cc(F)ccc2Cl)CC1` (single isomer, unassigned) [Compound I-2551]: 1 to 10 µM; for `N#CC1(COc2cc(NC(=O)N3C[C@H](O)c4cc(F)ccc43)c3c(c2)C(=O)N[C@H]3c2cc(F)ccc2Cl)CC1` (single isomer, unassigned) [Compound I-2553]: 0.1 to 0.5 µM. The same measure for `N#CC1(COc2cc(NC(=O)N3C[C@H](O)c4cc(F)ccc43)c3c(c2)C(=O)N[C@@H]3c2cc(F)ccc2Cl)CC1` (single isomer, unassigned) [Compound I-2554]: 0.1 to 0.5 µM; for `O=C1N[C@@H](c2cc(F)ccc2Cl)c2c(NC(=O)N3C[C@@](O)(C(F)F)c4cc(F)ccc43)cccc21` (single isomer, unassigned) [Compound I-2555]: 1 to 10 µM. `O=C1N[C@H](c2cc(F)ccc2Cl)c2c(NC(=O)N3C[C@@](O)(C(F)F)c4cc(F)ccc43)cccc21` (single isomer, unassigned) [Compound I-2556] gave an IC50 of 0.5 to 1 µM. The same measure for `O=C1N[C@@H](c2cc(F)ccc2Cl)c2c(NC(=O)N3C[C@](O)(C(F)F)c4cc(F)ccc43)cccc21` (single isomer, unassigned) [Compound I-2557]: 1 to 10 µM; for `N#Cc1cc(NC(=O)N2C[C@@](O)(C(F)(F)F)c3cc(F)ccc32)c2c(c1)C(=O)N[C@H]2c1cc(F)ccc1Cl` (single isomer, unassigned) [Compound I-2559]: 1 to 10 µM. The same measure for `N#Cc1cc(NC(=O)N2C[C@](O)(C(F)(F)F)c3cc(F)ccc32)c2c(c1)C(=O)N[C@H]2c1cc(F)ccc1Cl` (single isomer, unassigned) [Compound I-2561]: 1 to 10 µM; for `N#Cc1cc(NC(=O)N2C[C@@](O)(C(F)(F)F)c3ccccc32)c2c(c1)C(=O)N[C@H]2c1cc(F)ccc1Cl` (single isomer, unassigned) [Compound I-2563]: 1 to 10 µM. For `N#Cc1cc(NC(=O)N2C[C@](O)(C(F)(F)F)c3ccccc32)c2c(c1)C(=O)N[C@H]2c1cc(F)ccc1Cl` (single isomer, unassigned) [Compound I-2565] the value was 1 to 10 µM.

Molecule `O=C1N[C@H](c2cc(F)ccc2Cl)c2c(NC(=O)N3C[C@](O)(C(F)(F)F)c4cc(F)ccc43)cc(-n3nccn3)cc21` (single isomer, unassigned) [Compound I-2570] gave an IC50 of 1 to 10 µM. The same measure for `O=C1N[C@@H](c2cc(F)ccc2Cl)c2c(NC(=O)N3C[C@@](O)(C(F)(F)F)c4cc(F)ccc43)cc(-n3nccn3)cc21` (single isomer, unassigned) [Compound I-2571]: 1 to 10 µM; for `CC(=O)Nc1cc(NC(=O)N2C[C@](O)(C(F)(F)F)c3cc(F)ccc32)c2c(c1)C(=O)N[C@H]2c1cc(F)ccc1Cl` (single isomer, unassigned) [Compound I-2574]: 0.1 to 0.5 µM; for `CC(=O)Nc1cc(NC(=O)N2C[C@@](O)(C(F)(F)F)c3cc(F)ccc32)c2c(c1)C(=O)N[C@@H]2c1cc(F)ccc1Cl` (single isomer, unassigned) [Compound I-2575]: 1 to 10 µM. For `O=C1N[C@H](c2cc(F)ccc2Cl)c2c(NC(=O)N3C[C@@](O)(C(F)(F)F)c4cc(F)ccc43)cc(C(F)F)cc21` (single isomer, unassigned) [Compound I-2577] the value was 1 to 10 µM; for `O=C1N[C@@H](c2cc(F)ccc2Cl)c2c(NC(=O)N3C[C@@](O)(C(F)(F)F)c4cc(F)ccc43)cc(C(F)F)cc21` (single isomer, unassigned) [Compound I-2578], 1 to 10 µM. The same measure for `NCCc1cc(NC(=O)N2C[C@](O)(C(F)(F)F)c3cc(F)ccc32)c2c(c1)C(=O)N[C@H]2c1cc(F)ccc1Cl` (single isomer, unassigned) [Compound I-2582]: 0.1 to 0.5 µM. Turning to `NCCc1cc(NC(=O)N2C[C@@](O)(C(F)(F)F)c3cc(F)ccc32)c2c(c1)C(=O)N[C@@H]2c1cc(F)ccc1Cl` (single isomer, unassigned) [Compound I-2583], the half-maximal inhibitory concentration (IC50) lay within 1 to 10 µM.

Regarding `O=C1N[C@@H](c2cc(F)ccc2Cl)c2c(NC(=O)N3C[C@@](O)(C(F)F)c4cc(F)ccc43)cc(Cl)cc21` (single isomer, unassigned) [Compound I-2588], the IC50 lay in the range of 1 to 10 µM. For `O=C1N[C@@H](c2cc(F)ccc2Cl)c2c(NC(=O)N3C[C@@](O)(C(F)F)c4cc(F)ccc43)cc(Cl)cc21` (single isomer, unassigned) [Compound I-2589] the value was 1 to 10 µM; for `O=C1N[C@@H](c2cc(F)ccc2Cl)c2c(NC(=O)N3C[C@](O)(C(F)F)c4cc(F)ccc43)cc(Cl)cc21` (single isomer, unassigned) [Compound I-2590], 1 to 10 µM. The same measure for `[2H]C1([2H])N(C(=O)Nc2cccc3c2[C@@H](c2cc(F)ccc2Cl)NC3=O)c2ccc(F)cc2[C@]1(O)C(F)(F)F` (single isomer, unassigned) [Compound I-2592]: 1 to 10 µM.

On to `[2H]C1([2H])N(C(=O)Nc2cccc3c2[C@H](c2cc(F)ccc2Cl)NC3=O)c2ccc(F)cc2[C@@]1(O)C(F)(F)F` (single isomer, unassigned) [Compound I-2593], for which the concentration for half-maximal inhibition (IC50) was in the range of 1 to 10 µM.
